These results are taken from patent publication US8853437B2, “Anti-inflammatory compounds” (The University of Tokyo, priority 2009, dated 2014).

The subject of experiment [1] is infiltration of neutrophil. Kind of experiment: zymosan peritonitis model. The format is in vivo, mouse C57BL/6J. To be noted: for suppressing effect for other cell group (macrophage etc.): 10 ng (FIG. 4C); for neutrophil suppressing activity compared with dexamethasone: 10 ng compound versus 10 μg dexamethasone (FIG. 4A, 4C); for dose dependence of activity in peritonitis model: Example 4, 1 ng or 10 ng/mouse (FIG. 4A(b), 4D); for activities of suppressing infiltration of neutrophil at an inflammation initial stage: low dose of 10 ng (FIG. 4C). The method, then:
For an inflammation model, zymosan peritonitis elicited by intraperitoneally administering zymosan being a cell wall component of yeast was used. Since an exudate in an abdominal cavity can be recovered, the present model is a model suitable for analyzing cytokines and eicosanoids.
Zymosan A (Wako Pure Chemical Industries, Ltd.) was suspended in a physiological saline to 1 mg/mL, and the suspension was warmed at 37° C. for 30 minutes. Thereafter, this zymosan A solution was vortexed, and returned to room temperature. The compound synthesized in the previous Example, 17,18-diHEPE was taken into a 1.5 mL tube, and a solvent was vaporized with nitrogen to complete dryness and, thereafter, a physiological saline was added to dissolve it. Then, 100 μL of this compound solution was injected (1 ng or 10 ng/mouse) through a tail vein of C57BL/6J mouse (7 weeks old, mail: CLEA Japan, Inc.). As a control, a group in which only a physiological saline was injected, and a group in which dexamethasone (10 μg/mouse) being an anti-inflammatory steroid was injected, were used. After about 2 minutes, 1 mL of a zymosan A solution was intraperitoneally administered. After 2 hours, cells exuded into an abdominal cavity were recovered into a tube with a PBS, and the cell number was counted. Thereafter, this tube was centrifuged at 1200 rpm and 4° C. for 5 minutes to remove the supernatant, a precipitate (pellet) was suspended in PBS, and a population was analyzed by three-color staining of FACS.
Abdominal cavity cells were adjusted to 2.5×10^6 cells/mL, and 200 μL was placed into a 5 mL round-bottom tube (BDFalcon) (5×10^5 cells/tube). To this tube was added an anti-mouse CD16/CD32 antibody (0.5 mg/mL; BDBiosciences) at 1 μL per tube, and this was incubated at room temperature for 10 minutes. To this tube was added a staining antibody mix (prepared by diluting 1.0 μL of FITC bound anti-mouse F4/80 antibody (0.5 mg/mL; eBiosciences), 0.5 μL of PE bound anti-mouse Ly-6G & Ly-6C antibody (0.2 mg/mL; eBiosciences) and 0.5 μL of PerCP-Cy5.5 bound anti-mouse CD11b antibody (0.2 mg/mL; eBiosciences) in 50 μL of PBS, per sample) at 50 μL/tube, and this was incubated at room temperature for 15 minutes under light shielding. Measurement was performed by FACS Calibur (BDBiosciences). […]

Experiment [2] relates to neutrophil which have infiltrated into lung. Kind of experiment: acute lung damage model (intrabronchial hydrochloric acid). Format: in vivo, mouse C57BL/6J. To be noted: 10 ng via tail vein; BAL 12 hours after hydrochloric acid (FIG. 4E). As to the method:
One hundred μL of a compound 17,18-diHEPE dissolved in a physiological saline was injected through a tail vein of a C57BL/6J mouse (7 weeks old, male; CLEA Japan, Inc.). After 15 minutes, this mouse was anesthetized by intraperitoneally administering a mixed solution of ketamine (Daiichi Sankyo Propharma) and xylazine (Bayer Medical Ltd.), a trachea was exposed, and 25 μL of hydrochloric acid (pH 1.0, 0.1 N; SIGMA) was administered into a left bronchium. As a control, a group in which only a physiological saline was injected and, after anesthesia, hydrochloric acid was administered into a left bronchium (saline/HCl), and a non-treated group (intact) were used. After 12 hours, this mouse was slaughtered, and bronchial alveolus washing (BAL) was performed with 0.7 mL of PBS two times. The cell number in the BAL solution was counted and a population of cells was quantitated by simple Giemsa staining using a simple Giemsa staining solution Diffquick (Sysmex Corporation).

As for `CCC(O)C(O)/C=C/C=C/C=C\C/C=C\C/C=C\CCCC(=O)O` (centres unmarked) [17,18-diHEPE, 17,18-dihydroxyeicosapentaenoic acid], the “suppression of infiltration of neutrophil” value in experiment [1] (10 ng/mouse via tail vein, abdominal cavity cells recovered 2 hours after zymosan, FACS (FIG. 4A)) is given as “about 40%”. The “IC40 (dose versus decrease in the neutrophil number)” value in experiment [1] (calculated from graph FIG. 4F) is listed as “approximately 8 ng”.
As to `CCC(O)C(O)/C=C/C=C/C=C\C/C=C\C/C=C\CCCC(=O)O` (single isomer, unassigned) [peak 5, 17,18-diHEPE], in experiment [1], the “suppressing effect for other cell group (macrophage etc.)” value is given as “not recognized”, the “neutrophil suppressing activity compared with dexamethasone” value is on record as “equivalent to 10 μg of dexamethasone”, the “dose dependence of activity in peritonitis model” value was “dose-dependent” and the “activities of suppressing infiltration of neutrophil at an inflammation initial stage” value is “recognized”.
For `CCC(O)C(O)/C=C/C=C/C=C\C/C=C\C/C=C\CCCC(=O)O` (single isomer, unassigned) [peak 6, 17,18-diHEPE], in experiment [2], the “neutrophil-specific infiltration suppressing activity” value is listed as “recognized”. Also, in experiment [1], the “suppressing effect for other cell group (macrophage etc.)” value is recorded as “not recognized”, the “neutrophil suppressing activity compared with dexamethasone” value is on record as “equivalent to 10 μg of dexamethasone”, the “dose dependence of activity in peritonitis model” value was “dose-dependent” and the “activities of suppressing infiltration of neutrophil at an inflammation initial stage” value is given as “recognized”.
